Measurements published in PubChem BioAssay AID2060886 (Molecular Pharmacology Branch, DTP, NCI, 2025).
pIC50: −log10 of the molar value.

Test system: 653999-131-R-J2-PDC complex spheroids, growth inhibition
Assay: Anticancer human tumor 653999-131-R-J2-PDC patient-derived lung adenocarcinoma cell line growth inhibition [RAS]
Details: for pIC50: curve of first compound; for viability, T/C: stronger effect = lower value; active = viability on the fitted dose curve at most 10% of control; inactive = the rest
In short: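 Multi-cell-type spheroids: tumor cells plus HUVEC endothelial cells and mesenchymal stem cells. RAS-pathway inhibitors were combined with targeted agents, each dosed in half-log steps down from clinical Cmax, or from 10 microM when Cmax was unknown.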
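Note: spheroids exposed to the agents for seven days before the readout.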

CCN1CCN(Cc2ccc(Nc3ncc(F)c(-c4cc(F)c5nc(C)n(C(C)C)c5c4)n3)nc2)CC1 + CCn1c(-c2cccnc2C(C)OC)c2c3cc(ccc31)N1CCOC(CC(NC(=O)C(C(C)C)N(C)C(=O)C3(F)CCN(C(=O)C#CC(C)(C)N(C)C)CC3)C(=O)N3CCCC(N3)C(=O)OCC(C)(C)C2)C1
inactive: viability, T/C (second compound 0.000949 µM, first compound 0.00316 µM) 101% | viability, T/C (second compound 0.000949 µM, first compound 0.01 µM) 87.8% | viability, T/C (second compound 0.000949 µM, first compound 0.0316 µM) 75.3% | viability, T/C (second compound 0.000949 µM, first compound 0.1 µM) 67.6% | viability, T/C (second compound 0.000949 µM, first compound 0.316 µM) 73.2% | viability, T/C (second compound 0.000949 µM, first compound 1 µM) 78.4% | viability, T/C (second compound 0.003 µM, first compound 0.00316 µM) 98.5% | viability, T/C (second compound 0.003 µM, first compound 0.01 µM) 76.9% | viability, T/C (second compound 0.003 µM, first compound 0.0316 µM) 75.5% | viability, T/C (second compound 0.003 µM, first compound 0.1 µM) 75% | viability, T/C (second compound 0.003 µM, first compound 0.316 µM) 71.8% | viability, T/C (second compound 0.003 µM, first compound 1 µM) 92.9% | viability, T/C (second compound 0.00949 µM, first compound 0.00316 µM) 105% | viability, T/C (second compound 0.00949 µM, first compound 0.01 µM) 99.5% | viability, T/C (second compound 0.00949 µM, first compound 0.0316 µM) 64.8% | viability, T/C (second compound 0.00949 µM, first compound 0.1 µM) 77.6% | viability, T/C (second compound 0.00949 µM, first compound 0.316 µM) 80% | viability, T/C (second compound 0.00949 µM, first compound 1 µM) 82.2% | viability, T/C (second compound 0.03 µM, first compound 0.00316 µM) 95.1% | viability, T/C (second compound 0.03 µM, first compound 0.01 µM) 75.7% | viability, T/C (second compound 0.03 µM, first compound 0.0316 µM) 79.2% | viability, T/C (second compound 0.03 µM, first compound 0.1 µM) 64.2% | viability, T/C (second compound 0.03 µM, first compound 0.316 µM) 89.9% | viability, T/C (second compound 0.03 µM, first compound 1 µM) 79.1% | viability, T/C (second compound 0.0949 µM, first compound 0.00316 µM) 90.9% | viability, T/C (second compound 0.0949 µM, first compound 0.01 µM) 85.6% | viability, T/C (second compound 0.0949 µM, first compound 0.0316 µM) 79.5% | viability, T/C (second compound 0.0949 µM, first compound 0.1 µM) 69.3% | viability, T/C (second compound 0.0949 µM, first compound 0.316 µM) 83.7% | viability, T/C (second compound 0.0949 µM, first compound 1 µM) 81.3% | viability, T/C (second compound 0.3 µM, first compound 0.00316 µM) 95.4% | viability, T/C (second compound 0.3 µM, first compound 0.01 µM) 81.6% | viability, T/C (second compound 0.3 µM, first compound 0.0316 µM) 73.7% | viability, T/C (second compound 0.3 µM, first compound 0.1 µM) 60.8% | viability, T/C (second compound 0.3 µM, first compound 0.316 µM) 84.6% | viability, T/C (second compound 0.3 µM, first compound 1 µM) 77.6%
< 6.00: pIC50 (second compound 0.000949 µM) | pIC50 (second compound 0.003 µM) | pIC50 (second compound 0.00949 µM) | pIC50 (second compound 0.03 µM) | pIC50 (second compound 0.0949 µM) | pIC50 (second compound 0.3 µM)

CC(C)n1nc(-c2ccc3oc(N)nc3c2)c2c(N)ncnc21 + C=CC(=O)N1CCN(c2nc(OCC3CCCN3C)nc3c(F)c(-c4nc(N)cc(C)c4C(F)(F)F)c(Cl)cc23)C(C)C1
7.91: pIC50 (second compound 0.1 µM)
7.80: pIC50 (second compound 1 µM)
7.79: pIC50 (second compound 0.0316 µM)
8.03: pIC50 (second compound 0.01 µM)
7.93: pIC50 (second compound 0.316 µM)
7.85: pIC50 (second compound 0.00316 µM)
inactive: viability, T/C (second compound 0.00316 µM, first compound 0.000316 µM) 98.1% | viability, T/C (second compound 0.00316 µM, first compound 0.001 µM) 78.4% | viability, T/C (second compound 0.00316 µM, first compound 0.00316 µM) 73.5% | viability, T/C (second compound 0.00316 µM, first compound 0.01 µM) 52.5% | viability, T/C (second compound 0.00316 µM, first compound 0.0316 µM) 41.5% | viability, T/C (second compound 0.00316 µM, first compound 0.1 µM) 22.6% | viability, T/C (second compound 0.01 µM, first compound 0.000316 µM) 83.8% | viability, T/C (second compound 0.01 µM, first compound 0.001 µM) 97.3% | viability, T/C (second compound 0.01 µM, first compound 0.00316 µM) 68.8% | viability, T/C (second compound 0.01 µM, first compound 0.01 µM) 50.5% | viability, T/C (second compound 0.01 µM, first compound 0.0316 µM) 35% | viability, T/C (second compound 0.01 µM, first compound 0.1 µM) 29.1% | viability, T/C (second compound 0.0316 µM, first compound 0.000316 µM) 101% | viability, T/C (second compound 0.0316 µM, first compound 0.001 µM) 91.3% | viability, T/C (second compound 0.0316 µM, first compound 0.00316 µM) 71.8% | viability, T/C (second compound 0.0316 µM, first compound 0.01 µM) 58.1% | viability, T/C (second compound 0.0316 µM, first compound 0.0316 µM) 40.6% | viability, T/C (second compound 0.0316 µM, first compound 0.1 µM) 25% | viability, T/C (second compound 0.1 µM, first compound 0.000316 µM) 77.6% | viability, T/C (second compound 0.1 µM, first compound 0.001 µM) 74.6% | viability, T/C (second compound 0.1 µM, first compound 0.00316 µM) 70.7% | viability, T/C (second compound 0.1 µM, first compound 0.01 µM) 55.2% | viability, T/C (second compound 0.1 µM, first compound 0.0316 µM) 30.4% | viability, T/C (second compound 0.1 µM, first compound 0.1 µM) 26.3% | viability, T/C (second compound 0.316 µM, first compound 0.000316 µM) 92.8% | viability, T/C (second compound 0.316 µM, first compound 0.001 µM) 82% | viability, T/C (second compound 0.316 µM, first compound 0.00316 µM) 66.3% | viability, T/C (second compound 0.316 µM, first compound 0.01 µM) 51.1% | viability, T/C (second compound 0.316 µM, first compound 0.0316 µM) 39.7% | viability, T/C (second compound 0.316 µM, first compound 0.1 µM) 27.8% | viability, T/C (second compound 1 µM, first compound 0.000316 µM) 90.9% | viability, T/C (second compound 1 µM, first compound 0.001 µM) 91.8% | viability, T/C (second compound 1 µM, first compound 0.00316 µM) 72% | viability, T/C (second compound 1 µM, first compound 0.01 µM) 55.8% | viability, T/C (second compound 1 µM, first compound 0.0316 µM) 42.1% | viability, T/C (second compound 1 µM, first compound 0.1 µM) 26.6%

CCc1c2c(nc3ccc(O)cc13)-c1cc3c(c(=O)n1C2)COC(=O)[C@]3(O)CC
inactive: viability, T/C (compound 0.000949 µM) 85% [middle of 4 runs] | viability, T/C (compound 0.003 µM) 66.5% [middle of 4 runs] | viability, T/C (compound 0.00949 µM) 49.5% [middle of 4 runs] | viability, T/C (compound 0.03 µM) 38.3% [middle of 4 runs] | viability, T/C (compound 0.0949 µM) 26.5% [middle of 4 runs] | viability, T/C (compound 0.3 µM) 13.7% [middle of 4 runs]
9.95 nM [middle of 4 runs]: IC50 (curve of compound)
